These results are taken from patent US6011032A, “Heterocyclic compounds for treating myocardial ischemia” (Pierre Fabre Medicament, priority 1995, dated 2000).

The subject of one assay is anaesthetized rabbits. The assay is described as follows: Reinfusion ischemia in anaesthetized rabbits (iv). The format is in vivo, rabbit. The note with it: 0.16 mg/kg iv. The source says: (§1) The compounds of the present invention of formula I and the therapeutically acceptable salts thereof have advantageous pharmacological properties. These derivatives are active on cardiomyocytes by inhibiting the diastolic contraction induced by veratrine in isolated rat left atrium. These compounds are also active in vivo during reinfusion ischemia in anaesthetized rabbits: they inhibit the electrical disturbances in the ECG caused by the reinfusion ischemia without any appreciable hemodynamic effect and are not cardiac depressors. Such compounds are useful for preventive or curative purposes in the treatment of coronaropathies and cardiac and cerebral ischemia in all their forms and in the treatment of atherosclerosis.
Compounds of the present invention are also active via the venous route in the test of reinfusion ischemia in anaesthetized rabbits according to the method of Verscheure et al. (Fundam Clin Pharmacol (1993) 7, 385). The results for the compounds of Examples 1, 2, 11 and 15 are given in the table below by way of non-limiting example: […]

For the next assay, the system named is isolated rat left atrium. The assay is described as follows: Inhibition of contraction of isolated rat left atrium by veratrine. The assay is classed as cell-based.
Description: as §1
Inhibition of contraction of isolated rat left atrium by veratrine was carried out according to the technique of Le Grand et al. (Naunyn--Schmiedeberg's Arch Phazmacol (1993) 348 pp. 184-190). The results are given in the table below, in which the IC50 values are expressed in micromoles for certain compounds, by way of non-limiting examples: […]

Counter-ions that a name gives are not always drawn.

`CN(C1=Nc2ccccc2CS1)C1CCN(CCCOc2ccc(F)cc2)CC1.O=C(O)/C=C\C(=O)O` [Example 2, N-Methyl-N-[1-[3-(4-fluorophenoxy)propyl]piperid-4-yl]-4H-3,1-benzothiazin-2-amine hydrogen maleate]: in the assay with anaesthetized rabbits, the “% arterial pressure variation” value is reported as “+4%”, the “% heart rate variation” value was -3%, the “% inhibition ST segment” value worked out at 76% and the “Number of arrythmias under reinfusion” value was 1/5.

With `CN(c1nc2ccccc2s1)C1CCN(CCCCOc2ccc(F)cc2)CC1` [R 56865, N-(1-(4-(4-fluorophenoxy)butyl)piperid-4-yl)-N-methyl-2-benzothiazolamine, reference compound], the IC50 in the assay on isolated rat left atrium came to 250 nM.

Take `CN(C1=Nc2ccccc2CS1)C1CCN(CCCCOc2ccc(F)c(F)c2)CC1` [Example 11, N-Methyl-N-[1-[4-(3,4-difluorophenoxy)butyl]piperid-4-yl]-4H-3,1-benzothiazin-2-armine hydrogen maleate]: in the assay with anaesthetized rabbits, the “% arterial pressure variation” value is listed as “+3%”, the “% heart rate variation” value is on record as -1%, the “% inhibition ST segment” value was determined as 71% and the “Number of arrythmias under reinfusion” value is 1/5.

For the compound `CN(C1=Nc2ccccc2CS1)C1CCN(CCCCOc2ccc(F)cc2)CC1.O=C(O)/C=C\C(=O)O` [Example 1, N-Methyl-N-[1-[4-(4-fluorophenoxy)butyl]piperid-4-yl]-4H-3,1-benzothiazin-2-amine hydrogen maleate], in the assay on isolated rat left atrium, the IC50 is 150 nM. For the same compound, in the assay with anaesthetized rabbits, the “% arterial pressure variation” value is on record as “+6%”, the “% heart rate variation” value is listed as “+3%”, the “% inhibition ST segment” value is on record as 76% and the “Number of arrythmias under reinfusion” value is reported as 3/5.

`COc1ccc([C@@H]2Sc3ccccc3N(CCN(C)C)C(=O)[C@@H]2OC(C)=O)cc1` [Diltiazem, reference compound]: in the assay with anaesthetized rabbits, the “% arterial pressure variation” value is on record as -27%, the “% heart rate variation” value was -5%, the “% inhibition ST segment” value is on record as 61% and the “Number of arrythmias under reinfusion” value is given as 0/6.

For the compound `CC(C)NCC(O)COc1ccc(CC(N)=O)cc1` (centres unmarked) [Atenolol, reference compound], in the assay with anaesthetized rabbits, the “% arterial pressure variation” value was -9%, the “% heart rate variation” value is on record as -13%, the “% inhibition ST segment” value is given as 64% and the “Number of arrythmias under reinfusion” value is listed as 4/6.

Consider `CN(C1=Nc2ccccc2CS1)C1CCN(CC(O)COc2ccc(F)cc2)CC1.Cl.Cl` (centres unmarked) [Example 15, N-Methyl-N-[1-[2-hydroxy-3-(4-fluorophenoxy)propyl]-piperid-4-yl]-4H-3,1-benzothiazin-2-amine dihydrochloride], for which it took 320 nM to reach half-maximal inhibition in the assay on isolated rat left atrium (IC50). In addition, in the assay on anaesthetized rabbits, the “% arterial pressure variation” value is “+5%”, the “% heart rate variation” value was determined as 0%, the “% inhibition ST segment” value stood at 90% and the “Number of arrythmias under reinfusion” value is reported as 1/5.

In the assay with isolated rat left atrium, `CN(c1nc2ccccc2s1)C1CCN(CC(O)COc2ccc(F)cc2)CC1` (centres unmarked) [Sabeluzole, N-(1-(2-hydroxy-3-(4-fluorophenoxy)propyl)piperid-4-yl)-N-methyl-2-benzothiazolamine, reference compound] showed an IC50 of 5100 nM. Further, in the assay on anaesthetized rabbits, the “% arterial pressure variation” value is given as 2%, the “% heart rate variation” value is given as -5%, the “% inhibition ST segment” value is recorded as 84% and the “Number of arrythmias under reinfusion” value was 1/5.
